Test results: patent US4746667A, “Pharmaceutical composition containing 2-(2-benzimidazolyl thiomethyl) pyridine” (priority 1981, dated 1988)

test system: gastric acid secretion; test: Gastric Acid Secretion Inhibiting Effect on Conscious Dogs; assay type: in vivo; conditions: Canis lupus familiaris; dose 2 μmol/kg, oral (stomach tube), free base suspended in 0.5% Methocel; histamine-stimulated conscious Heidenhain pouch dogs; gastric juice collected 3 hours
Protocol: Gastric Acid Secretion Inhibiting Effect on Conscious Dogs
Chronic gastric fistula dogs (Heidenhain pouch dogs) were used. These dogs have been surgically provided with a gastric cannula in the pouch. Following a 4 weeks' recovery period after surgery, tests were performed once a week on each dog. Food and water were withdrawn 18 hours before each test.
Gastric acid secretion was induced by continuous infusion of histamine at individual doses (100-300 μmol/kg, h), resulting in submaximal secretion of gastric acid. At least 2 hours after onset of stimulation, when the gastric acid secertion had reached a steady level, the test compounds in the form of free base suspended in 0.5% Methocel® (90 HG, 15.000, Dow Chem. corp.), were given orally by stomach tube. The gastric juice was collected by free flow from the gastric cannula in consecutive 30 minutes samples for 3 hours. The samples were titrated to pH 7.0 with 0.1M NaOH using a Radio-meter automatic titrator and the acid output was calculated.
The percent inhibition of acid secretion was calculated by comparing in each dog the acid output in the tests to the acid output in control tests when only the vehicle was given.

Compound | inhibition in vivo at 2 µmol/kg
COc1c(C)cnc(CSc2nc3cc(C)ccc3[nH]2)c1C [5-CH3, H, H, CH3, OCH3, CH3] | 60%
COc1c(C)cnc(CSc2nc3cc(C(C)=O)c(C)cc3[nH]2)c1C [5-COCH3,6-CH3, H, CH3, OCH3, CH3, 2-[2-(3,5-dimethyl-4-methoxy)pyridylmethylthio]-5-COCH3-6-CH3-benzimidazole] | 35%
COC(=O)c1cc2nc(SCc3ncc(C)c(OC)c3C)[nH]c2cc1C [5-COOCH3,6-CH3, H, CH3, OCH3, CH3, 2-[2-(3,5-dimethyl-4-methoxy)pyridylmethylthio]-(5-carbomethoxy-6-methyl)benzimidazole] | 80%
COc1ccc2[nH]c(SCc3ncc(C)c(C)c3C)nc2c1 [5-OCH3, H, H, CH3, CH3, CH3] | 75%
COc1ccc2[nH]c(SCc3ncc(C)c(OC)c3C)nc2c1 [5-OCH3, H, H, CH3, OCH3, CH3, 2-[2-(3,5-dimethyl-4-methoxy)pyridylmethylthio]-(5-methoxy)benzimidazole] | 75%

same assay, conditions: Canis lupus familiaris; dose 8 μmol/kg, oral (stomach tube), free base suspended in 0.5% Methocel; histamine-stimulated conscious Heidenhain pouch dogs; gastric juice collected 3 hours

Compound | inhibition in vivo at 8 µmol/kg
CC(=O)c1cc2nc(SCc3cc(C)c(C)cn3)[nH]c2cc1C [5-COCH3,6-CH3, H, H, CH3, CH3] | 80%
COc1c(C)cnc(CSc2nc3cc(C(C)=O)ccc3[nH]2)c1C [5-COCH3, H, H, CH3, OCH3, CH3] | 90%
COC(=O)c1ccc2[nH]c(SCc3ncc(C)c(OC)c3C)nc2c1 [5-COOCH3, H, H, CH3, OCH3, CH3] | 50%
